# Measured values from patent publication US20240190855A1 (Relay Therapeutics, Inc., priority 2021, published 2024).
# Target: T1, CDK2/Cyclin E complex (Homo sapiens, UniProt P24941)
# T1 construct: purchased Eurofins 14-475
# Experiment: CDK2/Cyclin E fluorescence-based microfluidic mobility shift assay (CDK2 Biochemical Caliper Assay)
# Details: read-out: Biochemical CDK2/CyclinE Caliper IC50
# Method: Compounds of the present disclosure were tested in a CDK2/Cyclin E fluorescence-based microfluidic mobility shift assay (PerkinElmer).
# The active wild type CDK2/Cyclin E complex was purchased from Eurofins (14-475). Compound stocks were prepared in DMSO and were serially diluted into 11 concentrations by 3-fold dilution. […] Compounds were incubated in the presence of CDK2/Cyclin E complex and ATP for 30 minutes at room temperature. Catalytic reaction was initiated with the addition of 5 uL of a 4× peptide solution containing 6 uM fluorescently label substrate peptide, FL Peptide 18 (aa sequence 5-FAM-QSPKKG, PerkinElmer, 760362) in 1× reaction buffer.
# The final reaction components were 0.1 nM CDK2/Cyclin E, 2000 uM ATP and 1.5 uM FL Peptide 18 and 1% DMSO. Reactions were incubated RT for 20 hr and terminated with 75 uL of a stopping solution containing 0.5 M EDTA. Samples were analyzed using a LabChip EZ reader (PerkinElmer).
row,SMILES,IC50 [nM]
1,"COCc1cc(C(=O)Nc2cc([C@@H]3CC[C@H](Oc4cnccc4C4CC4)C3)[nH]n2)n(C)n1 (single isomer, unassigned) [Example 394]",100 to 250
2,"COCc1cc(C(=O)Nc2cc([C@H]3CC[C@@H](Oc4ccc(C)nc4)C3)[nH]n2)n(C)n1 (single isomer, unassigned) [Example 395]",1000 to 100000
3,"COCc1cc(C(=O)Nc2cc([C@@H]3CC[C@H](Oc4ccc(C)nc4)C3)[nH]n2)n(C)n1 (single isomer, unassigned) [Example 396]",1000 to 100000
4,"COCc1nc2ccnc(Nc3cc([C@H]4CC[C@@H](OC(=O)NC(C)C)C4)[nH]n3)c2s1 (single isomer, unassigned) [Example 398]",≤ 100
5,"COCc1nc2ccnc(Nc3cc([C@@H]4CC[C@H](OC(=O)NC(C)C)C4)[nH]n3)c2s1 (single isomer, unassigned) [Example 399]",≤ 100
6,"CC(C)NC(=O)O[C@@H]1CC[C@H](c2cc(Nc3ncnc4ncccc34)n[nH]2)C1 (single isomer, unassigned) [Example 400]",≤ 100
7,"CC(C)NC(=O)O[C@H]1CC[C@@H](c2cc(Nc3ncnc4ncccc34)n[nH]2)C1 (single isomer, unassigned) [Example 401]",≤ 100
8,"Cc1cnn(-c2ccnc(Nc3cc([C@H]4CC[C@@H](OC(=O)NC(C)C)C4)[nH]n3)c2)c1 (single isomer, unassigned) [Example 402]",100 to 250
9,"Cc1cnn(-c2ccnc(Nc3cc([C@@H]4CC[C@H](OC(=O)NC(C)C)C4)[nH]n3)c2)c1 (single isomer, unassigned) [Example 403]",100 to 250
10,"c1cc2ncsc2c(Nc2cc([C@H]3CC[C@@H](Oc4nscc4C4CC4)C3)[nH]n2)n1 (single isomer, unassigned) [Example 404]",≤ 100
11,"c1cc2ncsc2c(Nc2cc([C@@H]3CC[C@H](Oc4nscc4C4CC4)C3)[nH]n2)n1 (single isomer, unassigned) [Example 405]",≤ 100
12,"Cc1cc(CC(=O)Nc2cc([C@@H]3CC[C@H](Cc4cn[nH]c4C(C)C)C3)[nH]n2)on1 (single isomer, unassigned) [Example 408]",250 to 1000
13,"Cc1cc(CC(=O)Nc2cc([C@H]3CC[C@@H](Cc4cn[nH]c4C(C)C)C3)[nH]n2)on1 (single isomer, unassigned) [Example 409]",100 to 250
14,"COCc1cc(C(=O)Nc2cc([C@H]3CC[C@@H](Oc4nnccc4C(C)C)C3)[nH]n2)n(C)n1 (single isomer, unassigned) [Example 410]",≤ 100
15,"COCc1cc(C(=O)Nc2cc([C@@H]3CC[C@H](Oc4nnccc4C(C)C)C3)[nH]n2)n(C)n1 (single isomer, unassigned) [Example 411]",≤ 100
16,"COCc1cc(C(=O)Nc2cc([C@@H]3CC[C@H](Oc4nscc4C4CC4)C3)[nH]n2)n(C)n1 (single isomer, unassigned) [Example 413]",≤ 100
17,"COCc1cc(C(=O)Nc2cc([C@H]3CC[C@@H](Oc4nscc4C4CC4)C3)[nH]n2)n(C)n1 (single isomer, unassigned) [Example 414]",≤ 100
18,"COCc1cc(C(=O)Nc2cc([C@H]3CC[C@@H](Oc4ccc(C(C)C)nn4)C3)[nH]n2)n(C)n1 (single isomer, unassigned) [Example 415]",250 to 1000
19,"CC(C)NC(=O)O[C@@H]1CC[C@H](c2cc(N)n[nH]2)C1 (single isomer, unassigned) [Example 417]",1000 to 100000
20,"CC(C)NC(=O)O[C@H]1CC[C@@H](c2cc(N)n[nH]2)C1 (single isomer, unassigned) [Example 418]",1000 to 100000
21,"COCc1cc(C(=O)Nc2cc([C@H]3CC[C@@](C)(CC(=O)NC(C)C)C3)[nH]n2)n(C)n1 (single isomer, unassigned) [Example 419]",1000 to 100000
22,"COCc1cc(C(=O)Nc2cc([C@@H]3CC[C@](C)(CC(=O)NC(C)C)C3)[nH]n2)n(C)n1 (single isomer, unassigned) [Example 420]",1000 to 100000
23,"CC(=O)Nc1cc([C@H]2CC[C@@H](Oc3nscc3C3CC3)C2)[nH]n1 (single isomer, unassigned) [Example 421]",≤ 100
24,"CC(=O)Nc1cc([C@@H]2CC[C@H](Oc3nscc3C3CC3)C2)[nH]n1 (single isomer, unassigned) [Example 422]",≤ 100
25,"CC(=O)Nc1nc2ccnc(Nc3cc([C@H]4CC[C@@H](OC(=O)NC(C)C)C4)[nH]n3)c2s1 (single isomer, unassigned) [Example 423]",≤ 100
26,"CC(=O)Nc1nc2ccnc(Nc3cc(C4CC[C@H](OC(=O)NC(C)C)C4)[nH]n3)c2s1 (single isomer, unassigned) [Example 424]",≤ 100
27,"CC(=O)Nc1cc([C@H]2CC[C@@H](Oc3nnccc3C(C)C)C2)[nH]n1 (single isomer, unassigned) [Example 427]",≤ 100

row,SMILES,IC50 [nM]
1,"CC(=O)Nc1cc([C@@H]2CC[C@H](Oc3nnccc3C(C)C)C2)[nH]n1 (single isomer, unassigned) [Example 428]",≤ 100
2,"CC(C)NC(=O)O[C@@H]1CC[C@H](c2cc(NC=O)n[nH]2)C1 (single isomer, unassigned) [Example 440]",250 to 1000
3,"CC(C)NC(=O)O[C@H]1CC[C@@H](c2cc(NC=O)n[nH]2)C1 (single isomer, unassigned) [Example 441]",250 to 1000
4,"Cc1cc(CC(=O)Nc2ncc([C@H]3CC[C@@H](OC(=O)NC(C)C)C3)s2)on1 (single isomer, unassigned) [Example 442]",≤ 100
5,"Cc1cc(CC(=O)Nc2ncc([C@@H]3CC[C@H](OC(=O)NC(C)C)C3)s2)on1 (single isomer, unassigned) [Example 443]",≤ 100
6,"COCc1nc2ccnc(Nc3cc([C@H]4CC[C@@H](Oc5nnccc5C(C)C)C4)[nH]n3)c2s1 (single isomer, unassigned) [Example 444]",≤ 100
7,"COCc1nc2ccnc(Nc3cc([C@@H]4CC[C@H](Oc5nnccc5C(C)C)C4)[nH]n3)c2s1 (single isomer, unassigned) [Example 445]",≤ 100
8,"COCc1cc(C(=O)Nc2cc([C@@H]3CC[C@@](C)(CC(=O)NC(C)C)C3)[nH]n2)n(C)n1 (single isomer, unassigned) [Example 447]",1000 to 100000
9,"COCc1cc(C(=O)Nc2cc([C@H]3CC[C@](C)(CC(=O)NC(C)C)C3)[nH]n2)n(C)n1 (single isomer, unassigned) [Example 448]",1000 to 100000
10,"COCc1cc(C(=O)Nc2cc([C@@H]3CC[C@H](Oc4ccc(C(C)C)nn4)C3)[nH]n2)n(C)n1 (single isomer, unassigned) [Example 449]",1000 to 100000
11,"Cc1cc(CC(=O)Nc2cc([C@H]3CC[C@@H](OC(=O)[C@H](N)C(C)C)C3)[nH]n2)on1 (single isomer, unassigned) [Example 450]",≤ 100
12,"Cc1cc(CC(=O)Nc2cc([C@@H]3CC[C@H](OC(=O)[C@H](N)C(C)C)C3)[nH]n2)on1 (single isomer, unassigned) [Example 451]",100 to 250
13,"Cc1cc(CC(=O)Nc2cc([C@H]3CC[C@@H](NC(=O)[C@H](O)C(C)C)C3)[nH]n2)on1 (single isomer, unassigned) [Example 452]",1000 to 100000
14,"Cc1cc(CC(=O)Nc2cc([C@@H]3CC[C@H](NC(=O)[C@H](O)C(C)C)C3)[nH]n2)on1 (single isomer, unassigned) [Example 453]",1000 to 100000
15,"CCOC(=O)c1cc2c(Nc3cc([C@H]4CC[C@@H](OC(=O)NC(C)C)C4)[nH]n3)nc(C)cn2n1 (single isomer, unassigned) [Example 462]",≤ 100
16,"CCOC(=O)c1cc2c(Nc3cc([C@@H]4CC[C@H](OC(=O)NC(C)C)C4)[nH]n3)nc(C)cn2n1 (single isomer, unassigned) [Example 463]",≤ 100
17,"COCc1nc2ccnc(Nc3cc([C@@H]4C[C@H](OC(=O)NC(C)C)CO4)[nH]n3)c2s1 (single isomer, unassigned) [Example 466]",≤ 100
18,"COCc1nc2ccnc(Nc3cc([C@H]4C[C@@H](OC(=O)NC(C)C)CO4)[nH]n3)c2s1 (single isomer, unassigned) [Example 467]",100 to 250
19,"Cc1cc(CC(=O)Nc2cc([C@H]3CC[C@@H](OC(=O)[C@@H](N)C(C)C)C3)[nH]n2)on1 (single isomer, unassigned) [Example 468]",100 to 250
20,"Cc1cc(CC(=O)Nc2cc([C@@H]3CC[C@H](OC(=O)[C@@H](N)C(C)C)C3)[nH]n2)on1 (single isomer, unassigned) [Example 469]",250 to 1000
21,"COCc1cc(C(=O)Nc2cc([C@H]3CC[C@@H](Oc4nnccc4C4CC4)C3)[nH]n2)n(C)n1 (single isomer, unassigned) [Example 470]",≤ 100
22,"COCc1cc(C(=O)Nc2cc([C@@H]3CC[C@H](Oc4nnccc4C4CC4)C3)[nH]n2)n(C)n1 (single isomer, unassigned) [Example 471]",≤ 100
23,"COCc1cc(C(=O)Nc2cc([C@H]3CC[C@@H](Oc4cccnc4C(C)C)C3)[nH]n2)n(C)n1 (single isomer, unassigned) [Example 472]",100 to 250
24,"COCc1cc(C(=O)Nc2cc([C@@H]3CC[C@H](Oc4cccnc4C(C)C)C3)[nH]n2)n(C)n1 (single isomer, unassigned) [Example 473]",100 to 250
25,"COCc1cc(C(=O)Nc2cc([C@H]3CC[C@@H](Oc4nnccc4-c4ccccc4)C3)[nH]n2)n(C)n1 (single isomer, unassigned) [Example 474]",100 to 250
26,"COCc1cc(C(=O)Nc2cc([C@@H]3CC[C@H](Oc4nnccc4-c4ccccc4)C3)[nH]n2)n(C)n1 (single isomer, unassigned) [Example 475]",≤ 100
